# Source: US20130243867A1, “MICELLE COMPOSITIONS AND METHODS FOR THEIR USE” (University of South Florida (A Florida Non-Profit …, priority 2012, published 2013)
# Assays:
# HEK293 cells = conditions: cells incubated with free DOX, literature; cited from earlier work
# [1] = In vitro DOX release study (dialysis); format: physicochemical; conditions: 96 hours, either pH
# Experimental: An in vitro DOX release study was also performed wherein D-LMNs, M-LMNs, and free DOX were each dispersed in 1 ml PBS buffer containing 1% Tween 20 (pH 7.3 or pH 5.1) and placed in a dialysis membrane (MWCO of 12000-14000 Da), The bag was then immersed in a tube containing 10 mL of the same PBS buffer ([…] or pH 5.1) and incubated at 37° C. At specific time intervals the DOX content in the PBS was analyzed using the UV-VIS spectrophotometer at 485 nm. Samples were all done in triplicate. M-LMNs were used as a blank. The release of the encapsulated DOX from D-LMNs was determined at pH 7.3, which is the physiological pH, and at pH 5.1, which represents the acidic pH inside endosomes, lysosomes, and solid tumors. One percent Tween 20 was used because it forms hydrophobic pockets, which can stabilize the released DOX from the D-LMNs, and helps to avoid aggregation of the hydrophobic DOX in the aqueous environment.
smiles,measurement,setting,value
"COc1cccc2c1C(=O)c1c(O)c3c(c(O)c1C2=O)C[C@@](O)(C(=O)CO)C[C@@H]3O[C@H]1C[C@H](N)[C@H](O)[C@H](C)O1.Cl [free DOX, doxorubicin hydrochloride]",location of DOX in cells,HEK293 cells,found in the nuclei intercalated with DNA
same,DOX released,[1],more than 90%
